Laboratory results: PubChem BioAssay (NCI)
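Method: 48-hour compound exposure of cells in 96-well plates, five concentrations, linear interpolation of endpoints. At the GI50, growth is halved. TGI: total growth inhibition.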

Experiments:
Assay in all cases: NCI-60 cell line screen, 48 h
SF-539 CNS = test system: SF-539 CNS
PC-3 prostate = test system: PC-3 prostate
HL-60(TB) leukemia = test system: HL-60(TB) leukemia
CCRF-CEM leukemia = test system: CCRF-CEM leukemia
M14 melanoma = test system: M14 melanoma
KM12 colon = test system: KM12 colon
RPMI-8226 leukemia = test system: RPMI-8226 leukemia
SK-MEL-2 melanoma = test system: SK-MEL-2 melanoma
K-562 leukemia = test system: K-562 leukemia
MDA-MB-231 breast = test system: MDA-MB-231 breast

Structure (SMILES)	GI50 (SF-539 CNS)	TGI (SF-539 CNS)	GI50 (PC-3 prostate)	TGI (PC-3 prostate)	GI50 (HL-60(TB) leukemia)	TGI (HL-60(TB) leukemia)	GI50 (CCRF-CEM leukemia)	TGI (CCRF-CEM leukemia)	GI50 (M14 melanoma)	TGI (M14 melanoma)	GI50 (KM12 colon)	TGI (KM12 colon)	GI50 (RPMI-8226 leukemia)	TGI (RPMI-8226 leukemia)	GI50 (SK-MEL-2 melanoma)	TGI (SK-MEL-2 melanoma)	GI50 (K-562 leukemia)	TGI (K-562 leukemia)	GI50 (MDA-MB-231 breast)	TGI (MDA-MB-231 breast)
CC1C(=O)c2cc3c(cc2CCN(C)Cc2c1ccc1c2OCO1)OCO3 (stereo not drawn)	71.2 µg/mL	> 75 µg/mL	24 µg/mL	> 75 µg/mL	21.2 µg/mL	> 75 µg/mL	22 µg/mL	> 75 µg/mL	43.6 µg/mL	> 75 µg/mL	59 µg/mL	> 75 µg/mL	34.6 µg/mL	> 75 µg/mL	> 75 µg/mL	> 75 µg/mL	24.7 µg/mL	> 75 µg/mL	> 75 µg/mL	> 75 µg/mL
Clc1ccc(Nc2nc(Nc3ccccc3)nc(Nc3ccc(-c4cc(-c5ccc(Cl)cc5)on4)cc3)n2)cc1	37.9 µM	> 100 µM	8.4 µM	> 100 µM	51.5 µM	> 100 µM	11.8 µM	> 100 µM			13.5 µM	52.4 µM	18.7 µM	> 100 µM	24.1 µM	> 100 µM	21.4 µM	> 100 µM	10.5 µM	66.3 µM
O=C(Cc1csc2nc(-c3ccc(Cl)cc3)cn12)N/N=C/c1ccccc1O	7.93 µM	> 100 µM	3.46 µM	> 100 µM	1.66 µM	8.51 µM	0.736 µM	> 100 µM			2.81 µM	> 100 µM	3.36 µM	> 100 µM			3.42 µM	> 100 µM	13.1 µM	> 100 µM
O=C1C2Cc3c(n(C(=O)c4ccccc4)c4ccccc34)CC2C(=O)N1c1ccc(Nc2ccc(N3C(=O)C4Cc5c(n(C(=O)c6ccccc6)c6ccccc56)CC4C3=O)cc2)cc1 (stereo not drawn)				> 100 µM		46.1 µM		> 100 µM		> 100 µM		> 100 µM						> 100 µM		> 100 µM
CC1=C[C@@H](C)C[C@]2(C)CC[C@H](O2)[C@]23CC[C@](CO)(C[C@H](O2)[C@@H]2O[C@@](C)(CC2=O)[C@@H](O)[C@H]2CC[C@@]4(CCC[C@@H](O4)[C@H](C)C(=O)O[C@H]4C[C@H]([C@]5(O)OCC[C@H](C)[C@@H]5O)O[C@H]4C=C1)O2)O3				> 10 µM		9.73 µM		> 9.53 µM		> 10 µM		> 10 µM		> 10 µM		> 2.45 µM		> 10 µM		0.217 µM
COC(=O)c1cc(NC(=O)c2cc(NC(=O)Cc3c[nH]c4ccccc34)cn2C)cn1C		> 100 µM		96.2 µM		95.4 µM		> 100 µM		> 100 µM		> 100 µM		48.4 µM		68.1 µM		> 100 µM		77.1 µM
CN(C)C(=O)OC1=CC2CCC(C1)N2C (stereo not drawn)		> 100 µM		> 100 µM				> 100 µM		> 100 µM		> 100 µM		> 100 µM		> 100 µM		> 100 µM		> 100 µM
COc1ccc(-n2c3c(c4cc(O)ccc42)Cc2ccccc2C3=O)cc1		> 100 µM		15.3 µM		> 100 µM		27.3 µM		> 100 µM		> 100 µM		32.7 µM		> 100 µM		> 100 µM		> 100 µM
COc1ccc(-c2nn(-c3ccc(NC(=O)c4cc(Cl)cc(Cl)c4)cc3)cc2-c2ccncc2)cc1Cl	2 µM	> 100 µM	5.38 µM	> 100 µM	3.41 µM	> 100 µM			2.4 µM	9.08 µM	4.29 µM	> 100 µM	0.494 µM	3.26 µM	2.79 µM	> 100 µM	1.86 µM	> 100 µM	1.39 µM	4.85 µM
O=C(CC(c1ccccc1)C1C(=O)NC(=S)NC1=O)c1ccc([N+](=O)[O-])cc1 (stereo not drawn)		> 100 µM		> 100 µM		> 100 µM		> 100 µM		> 100 µM		> 100 µM		> 100 µM		> 100 µM		> 100 µM		> 100 µM
O=C(/C=C1\N=C(c2ccccc2)N(c2nc3c(Cl)cc(Cl)cc3s2)C1=O)/C=C/c1ccccc1				> 100 µM		> 100 µM		> 100 µM		> 100 µM		> 100 µM		> 100 µM		> 100 µM		> 100 µM		> 100 µM
COc1cc(C2c3cc4c(cc3[C@@H](Nc3ccc(Oc5ccccc5)cc3)C3COC(=O)[C@H]23)OCO4)cc(OC)c1O (stereo partly drawn)		> 28.2 µM				2.23 µM		4.38 µM				> 100 µM		5.86 µM		> 100 µM		> 32.4 µM		
O=C(Nc1ccc(-n2ccc3c(NC(=O)c4ccccc4)nccc32)cc1)Nc1cccc(C(F)(F)F)c1	1.75 µM	18.4 µM	1.8 µM	8.56 µM	3.92 µM	14.2 µM	1.27 µM	5.55 µM	3.83 µM	15.7 µM	0.41 µM	11.3 µM	1.64 µM	4.81 µM	15 µM	30.3 µM	2.68 µM	10.5 µM	4.65 µM	18.1 µM
O=C1/C(=C/c2[nH]ncc2-c2ccc(Cl)cc2)C(=O)N(c2ccccc2)C1c1ccccc1 (stereo not drawn)		58.8 µM		> 100 µM		37 µM		53.7 µM		26 µM		79.5 µM		32.2 µM		35.2 µM		54.5 µM		42.6 µM
